What was measured:
[1] = tested on: human bone marrow cells; experiment: MTT cell proliferation assay on human bone marrow cells; assay type: cell-based; conditions: for increase in proliferation, percent over control: 20 μM; for proliferative activity on human bone marrow cells in culture (screen): screened individually
[2] = tested on: Human bone marrow-derived CD34+ cells; experiment: MTT cell proliferation assay on CD34+ cells; assay type: cell-based; conditions: highest doses (BB 500 ng/mL, D3 5 μM, CH 20 μM, Ca 20 μM, GT 500 ng/mL), 72 hours
Protocol: Human CD133+ cells were cultured for 23 days in the presence or absence of green tea (50 μg/ml).
(§1) Cell cultures and MTT Assay. For cell proliferation analysis, human bone marrow cells, human CD34+cells or CD133 cells (BioWhittaker, Inc.) were cultured in 96 well plates (5×10^4/well) containing 100 μL of complete medium (RPMI 1640 medium supplemented with 5% fetal calf serum). These cells were treated for 72 hours with various extracts at a wide range of doses (8 ng/mL to 500 ng/mL) or molecular compounds (0.3125 μM to 20 μM). Five hours before the end of the treatment, 20 μL of MTT solution (MTT kit, Sigma) was added to each well. These plates were then incubated in a CO2 incubator at 37° C. for 5 hours and the cultured media removed with needle and syringe. 200 μL of DMSO was added to each well with pipetting up and down to dissolve crystals. These plates were put back into the 37° C. incubator for 5 minutes, transferred to plate reader and measured absorbance at 550 nm. Data were represented as relative percentage mean proliferation, defined as O.D. reading number of each treated cells normalized to control cells (in the absence of treatment).

[3] = tested on: CD133+ (progenitor cells) collected from peripheral blood; experiment: MTT cell proliferation assay on CD133+ cells; assay type: cell-based, human; conditions: same conditions as CD34+ cells
Protocol: as §1
Promotion of CD133+ Cell Proliferation and Synergistic Properties of Extracts and Compounds. Some of the compounds and combinations with the greatest activity on proliferation of the bone marrow derived CD34+ cells were then used to treat CD133+ (progenitor cells) collected from peripheral blood and cultured under the same conditions as above.

[4] = Human pK study of carnosine after beef consumption (Park et al. 2005); assay type: in vivo, humans
Protocol: In one example, carnosine is added to a supplement in a dose of 100 mg. A recent pK study in humans [Park Y J, Volpe S L, Decker, E A (2005) Quantitation of Carnosine in Humans Plasma after Dietary Consumption of Beef. J. Agric. […] With a Mw of 266 and assuming 5 liters of blood in a human, 250 mg carnosine produces a blood conc of […]. Assuming linear pK, 100 mg should produce a human blood concentration of […]. Doses tested ranged from 1-20 μM, effect was still increasing at 20 μM. Thus, a dose as high as 620 may be helpful and still be within normal ranges for human consumption. A preferred effective range is about 10 mg to 100 mg of carnosine based on extrapolation from results obtained.

[5] = cited from earlier work
[6] = Vitamin D3 blood concentration in humans; assay type: in vivo; conditions: dose of 50 mcg
Protocol: In one example, Vitamin D3 is used as 2000 IU's, which is equivalent to 50 μg. In humans, daily administration of 4000 IUs (100 mcg) results in a blood concentration of 100 nmol/L. There is no official RDA for vitamin D3 [R. Vieth, D. Fraser, Vitamin D insufficiency: no recommended dietary allowance exists for this nutrient, CMAJ 166 (2002) 1541-1542](4). According to a conservative report of the Food and Nutrition Board [R. Vieth (2004) Why the optimal requirement for Vitamin D3 is probably much higher than what is officially recommended for adults. Journal of Steroid Biochemistry & Molecular Biology 89-90 (2004) 575-579], the safety limit (no adverse effect level, NOAEL) of vitamin D3 intake in humans is 60 mcg (or 2400 IU) per day [Standing Committee on the Scientific Evaluation of Dietary Reference Intakes. Dietary Reference Intakes: Calcium, Phosphorus, Magnesium, Vitamin D, and Fluoride. National Academy Press, 1997]. After applying a margin of safety, the recommended upper limit is 50 mcg (2000 IUs) per day for intake by the general public [I. Munro, Derivation of tolerable upper intake levels of nutrients, Am. J. Clin. Nutr. 74 (2001) 865-867]. Clinical trials show no benefit from oral doses 20 mcg (800 IUs) or less [R. Vieth (2004) Why the optimal requirement for Vitamin D3 is probably much higher than what is officially recommended for adults. […]

[7] = daily administration of 4000 IUs (100 mcg); cited from earlier work
[8] = cited from earlier work; remark: listed apart in the source
[9] = tested on: CD117/SCA-1 positive cells (hematopoietic stem cells); experiment: Flow cytometry of CD117/SCA-1 positive cells after 6 days of treatment; assay type: in vivo, mice; conditions: day 7
Protocol: (§2) On day 7 cells were isolated and prepared for flow cytometry. The percentage of CD117/SCA-1 positive cells was analyzed. This represents a hematopoietic stem cells. […] On day 7 cells were isolated and plated in the colony forming assay (see specific methods) for 5 days. ATP was detected by luciferase assay and luminescence was converted to ATP units with use of a standard curve. […] Although a statistically small sample, the effects show a cytokine like effect to reduce progenitors in the bone marrow.
(§3) In vivo studies. […] To date we have treated 3 mice with (Blueberry Extract: 3 mg/kg/day; Carnosine: 10 mg/kg/day; Vitamin D3:1 mg/kg/day; green tea extract: 3 mg/kg/day) or water by gavage, in addition 3 mice have been treated with G-CSF […] i.p. Initial studies were done at 6 days of treatment as this is an optimal time for G-CSF to show mobilization of progenitors into the peripheral blood. Bone marrow, spleen and peripheral blood mononuclear cells were examined by flow cytometry with SCA-1 and CD117, the presence of both markers is indicative of multipotent hematopoietic stem cells. […] The three fractions were also assessed in the HALO™ colony forming assay. […] This effect is consistent with the literature and thus increases our confidence in this version of the CFU-C assay.

[10] = tested on: colony forming units (CFU-C's); experiment: HALO colony forming assay of bone marrow, spleen and mononuclear cells; assay type: in vivo, mice; conditions: 6 days of treatment
Protocol: as §2, §3

Catechin
increase in proliferation, percent over control ([1]; 72 hours): 34.8±5.2%
proliferative activity on human bone marrow cells in culture (screen) [1]: increase cell proliferation
increase in proliferation, percent over control (FIG. 2B) [2]: 24.8±5.0%

hGM-CSF: positive control, human granulocyte colony-stimulating factor
increase in proliferation, percent over control (FIG. 2A) ([1]; combination experiment, BB 500 ng/mL, D3 5 μM, CH 20 μM, Ca 20 μM, GT 500 ng/mL, 72 hours): 48.3±7.4%
proliferation, percent over control ([1]; highest dose of 100 ng/ml, 72 hours): 44.5±8.1%
increase in proliferation, percent over control (FIG. 2B) [2]: 48.3±7.4%
increase in proliferation, percent over control (FIG. 2C) [3]: 21.11±2.9%

NCCC(=O)N[C@@H](Cc1cnc[nH]1)C(=O)O [Carnosine]
increase in proliferation, percent over control ([1]; 72 hours): 26.6±6.0%
proliferative activity on human bone marrow cells in culture (screen) [1]: increase cell proliferation
increase in proliferation, percent over control (FIG. 2B) [2]: 11.05±2.1%
increase in proliferation, percent over control (FIG. 2C) [3]: 16.9±3.3%
human blood concentration ([4]; 100 mg, assuming linear pK): 248 µM
concentration at 3 h ([4]; human, whole blood, oral, 250 mg carnosine, Mw of 266, assuming 5 liters of blood, read-out: blood conc): 620 µM
plasma conc. ([5]; 250 mg carnosine (two beef patties) ingested): 33000 ng/mL
time of plasma peak ([5]; 250 mg carnosine ingested): 3 h
time of return to baseline ([5]; 250 mg carnosine ingested): 5 h

C=C1CC[C@H](O)C/C1=C/C=C1\CCC[C@]2(C)[C@@H]([C@H](C)CCCC(C)(C)O)CC[C@@H]12 [25-Hydroxycholecalciferol]
proliferation, percent over control ([1]; 5 μM, 72 hours): 14.8±3.3%
proliferative activity on human bone marrow cells in culture (screen) [1]: increase cell proliferation
increase in proliferation, percent over control (FIG. 2B) [2]: 6.9±2.6%
increase in proliferation, percent over control (FIG. 2C) [3]: 7.6±1.39%
plasma concentration [6]: 0.05 µM
blood concentration [7]: 0.1 µM
recommended upper limit for intake by the general public ([8]; after applying a margin of safety): 50 mcg per day
safety in clinical trials ([8]; human oral doses of 1000 IUs to 4000 IUs (100 mcg/day)): completely safe
safety limit (no adverse effect level, NOAEL) of intake ([8]; humans): 60 mcg per day

O=C(O[C@@H]1Cc2c(O)cc(O)cc2O[C@@H]1c1cc(O)c(O)c(O)c1)c1cc(O)c(O)c(O)c1 [EGCG]
proliferative activity on human bone marrow cells in culture (screen) [1]: did not show high activity

B1: G-CSF: granulocyte-colony-stimulating factor, potent cytokine given i.p. to mice (protein, UniProt P09919 31-207, looked up)
Granulocyte …: TPLGPASSLPQSFLLKCLEQVRKIQGDGAALQEKLVSECATYKLCHPEELVLLGHSLGIPWAPLSSCPSQALQLAGCLSQLHSGLFLYQGLLQALEGISPELGPTLDTLQLDVADFATTIWQQMEELGMAPALQPTQGAMPAFASAFQRRAGGVLVASHLQSFLEVSYRVLRHLAQP
CD117/SCA-1 positive cells ([9]; BM population): decrease
CD117/SCA-1 positive cells ([9]; all 3 cell fractions (BM, spleen, MNC)): small increase
CD117/SCA-1 positive cells ([9]; spleen and MNC populations): trend for an increase
colony forming units (CFU-C's) ([10]; bone marrow fraction): decrease
colony forming units (CFU-C's) ([10]; bone marrow fraction, listed as GCSF): reduce
colony forming units (CFU-C's) ([10]; spleen and MNC fractions): increase

From patent US7442394B2, “Combined effects of nutrients on proliferation of stem cells” (University of South Florida, priority 2005, dated 2008)
